“Also recorded” adds a separate entry of the source.
Legend:
ovarian steroidogenosis = assay: Inhibition of ovarian steroidogenesis in women, intranasal, 6 consecutive cycles; type: in vivo; settings: for reduction of seric levels of progesterone as compared to the controls: typical case (sheet 3)
Experimental: The inhibitory activity of [D Ser (tbu)^6 des Gly NH2^10 ] LH-RH ethylamide on ovarian steroidogenosis in women was determined on 6 women aged 26 to 35 years with normal and regular menstrual cycles and without prior endocrinal or gynecological problems. The study was conducted for 6 consecutive cycles consisting of 2 pretreatment cycles, 2 treatment cycles and 2 post-treatment cycles. Two drops of a solution containing 500 μg of [D Ser (tbu)^6 des Gly NH2^10 ] LH-RH ethylamide were deposited on each nostril at 8 A.M. and 5P.M. of a day between the 4th and 9th day after the peak of LH-day 0. Daily blood samples were taken between 4 and 6 P.M. to measure seric levels of LH, FSH, progesterone and estradiol which were determined by radioimmuno-logictests with double antibodies. The antibodies to measure LH and FSH were furnished by the National Pituitory Agency of N.I.H. of Bethesda, Md.
Estradiol and progesterone were measued with highly specific antibodies developed against 7-(0-carboxymethyl)oxime of estradiol and 12-(0-carboxymethyl)-oxime of progesterone, respectively [3H] 17β-estradiol and ^125 I-progesterone-12-[0-carboxymethyl)-oxime]used as tracers. The serum was extracted with benzene and the steroids were separated with a LH-20 column before the determination. The radioimmunological results were exploited by the program derived from model II of Rodbard and Lewald as in Example 1 and the statistical significance was measured by the multiple level test of Ducan-Kramer of Example 1. The results are shown in the graphs of sheets 3 to 5 of the FIG.

[1] = system: testicular steroidogensis; assay: Inhibition of testicular steroidogenesis in healthy men, single intranasal dose; seric LH, FSH and steroids by radioimmunoassay; type: in vivo
Experimental: The inhibitory activity of [D Ser (tbu)^6 of des Gly NH2^10 ] LH-RH ethylamide (described in German application Ser. No. 2,438,350) against testicular steroidogensis in men in good health was determined on men in good health aged 30 to 40 years. The said product was administered intranasally at a dose of 500 μg in a few drops of distilled water at 8 A.M. on the third day of the test. For 2 days prior to the treatment and for 6 days after the treatment, samples of blood were taken daily at 8 A.M., 3 P.M. and 10 P.M. On the day of administration of the LH-RH agonist, blood samples were taken at 11 A.M. and 6 P.M.
The seric concentrations of LH and FSH were measured by radioimmuno-logic dosages with double antibodies and the antibodies for measuring LH and FSH were furnished by the National Pituitary Agency of N.I.H. in Bethesda, Md. The seric concentrations of steroids was measured by radioimmuno-logic dosages in which one ml of serum was extracted with ether and the steroids were separated on a LH-20 column before measuring with radioimmuno-logic dosages. The radioimmuno-logic dosage results were determined by a program derived from model II of Rodbard et al [Second Karolinska Symposium on Research Methods in Reproductive Endrocrinology, Diczfalusky Editor, Copenhague (1970), p. 79-103]. The statistical significance was determined by the "multiple level test" of Ducan-Kramer [Kramer, Biometrics, Vol 12 (1956), p. 307]. The results are shown in the graphs on sheet 1 of the FIGS. filed herewith.

[2] = system: testicular steriodogenosis; assay: Inhibition of testicular steroidogenesis in a patient with prostate cancer, intranasal twice a day; type: in vivo, human; settings: intranasal 500 μg twice a day
Source text: The inhibitory activity of [D Ser (tbu)^6 des Gly NH2^10 ] […] The results are reported in the graphs of sheet 2 of the Figures.

Structure (SMILES): CCNC(=O)[C@@H]1CCCN1C(=O)[C@H](CCCNC(=N)N)NC(=O)[C@H](CC(C)C)NC(=O)[C@@H](COC(C)(C)C)NC(=O)[C@H](Cc1ccc(O)cc1)NC(=O)[C@H](CO)NC(=O)[C@H](Cc1c[nH]c2ccccc12)NC(=O)[C@H](Cc1c[nH]cn1)NC(=O)[C@@H]1CCC(=O)N1 [[D Ser (tbu)^6 des Gly NH2^10] LH-RH ethylamide]
- level of progesterone, cycles of pretreatment as base of 100% (ovarian steroidogenosis; 12 cycles of post-treatment): 99%
- level of progesterone, cycles of pretreatment as base of 100% (ovarian steroidogenosis; 12 cycles of treatment): 46%
- level of progesterone reduced as compared to the controls (ovarian steroidogenosis; all results (sheet 5), cycles of treatment): 46%
- level of seric progesterone in the 2 cycles of post-treatment (ovarian steroidogenosis; sheet 4, post-treatment cycles): return to normal
- level of seric progesterone in the 2 cycles of treatment (ovarian steroidogenosis; sheet 4, treatment cycles): accelerated diminution
- reduction of seric levels of progesterone as compared to the controls (ovarian steroidogenosis; first cycle of treatment, intranasal 500 μg at 8 A.M. and 5 P.M.): 13%
- reduction of seric levels of progesterone as compared to the controls (ovarian steroidogenosis; second cycle of treatment): 34%
- duration of drop of seric levels of testicular steroids (testosterone and its precursors) ([1]; human, single intranasal dose 500 μg): 3 days
- level of testosterone/steroids on the fourth day after administration ([1]; human, single intranasal dose 500 μg, fourth day (until 6th day)): returned to normal; also recorded: return to normal levels
- overall effect on testicular steroidogenesis ([1]; men, intranasal 500 μg): inhibition of testicular steroidogenesis
- level of androgenic steroids [2]: diminution
